From PubChem BioAssay AID1996 come the findings set out here.

Values after ≈ are worked out from the molar mass of the structure shown.

For the series the following is noted: buffer; pH 7.4; 200.0 µM.
By kinetic solubility is commonly meant solubility judged after dilution from a stock solution rather than from solid. The compound `O=C(NCCCN1CCCC1=O)c1ccc(NS(=O)(=O)c2ccccc2)cc1` registered a solubility (kinetic) of 58.8 µg/mL (≈ 146 µM). Next, `COc1ccc(NC(=O)c2coc(C)c2)cc1`: 31.9 µg/mL (≈ 138 µM).

Regarding `CCCC12CN3CC(C)(CN(C1)C3c1ccco1)C2=O` (stereo unspecified), the kinetic solubility was 38.9 µg/mL (≈ 142 µM). For `CC(C)(C)c1ccccc1OCC(=O)NCc1ccccc1` the value was 1.8 µg/mL (≈ 6.05 µM); for `CCOc1ccc(S(=O)(=O)NCc2cccnc2)c2ccccc12`, 38.5 µg/mL (≈ 112 µM); for `CCOc1ncccc1C(=O)OCC(=O)NCCCc1ccccc1`, more than 51.4 µg/mL. For `O=C(O)c1ccccc1/C=N/NC(=S)NCc1ccccc1` the value was more than 47 µg/mL. For `Cc1ccc(-n2c(SCC(=O)N3CCCCC3)nc(O)cc2=O)cc1` the value was 49.9 µg/mL (≈ 139 µM). Consider `COc1cc2c(cc1OC)CN(C(=O)CCNC(=O)c1ccccc1Cl)CC2`, for which the kinetic solubility was more than 60.4 µg/mL. Next, `CCOC(=O)C1CCN(Cc2ccc3ccccc3c2)CC1`: 25.9 µg/mL (≈ 87.1 µM). Next, `CSc1sc(C(=O)Nc2ccc(F)cc2F)c2c1C=CCC2`: 2.9 µg/mL (≈ 8.59 µM); `O=c1cc(-c2ccco2)nc(SCc2cccc(Cl)c2)[nH]1`: 0.6 µg/mL (≈ 1.88 µM).

On to `CCCC(=O)Nc1ccc(C=C(C(C)=O)C(C)=O)cc1`, for which the solubility (kinetic) was more than 41 µg/mL. Regarding `COCC(C)n1c(SCC(=O)Nc2c(C)n(C)n(-c3ccccc3)c2=O)nc2ccccc2c1=O` (stereo unspecified), the kinetic solubility was more than 74 µg/mL. Next, `COc1ccc(CNC(=O)C2CCCC2)cc1`: 28.6 µg/mL (≈ 123 µM). With `Nc1nc(Nc2ccccc2)nc(NCc2ccccc2)c1[N+](=O)[O-]`, the solubility (kinetic) amounted to 0.2 µg/mL (≈ 0.595 µM). This solubility kinetic is about 140-fold lower than that of the compound before. As to `CCn1c(SCC(=O)Nc2nccc(C)n2)nc2ccccc21`, the kinetic solubility was more than 49.1 µg/mL. For `CSCCC1NC(=O)N(CC(=O)Nc2ccc3c(c2)OCCO3)C1=O` (stereo unspecified) the value was more than 54.8 µg/mL; for `CCN(CC)c1ccc(Nc2nc(-c3cccnc3)cs2)cc1`, less than 0.2 µg/mL. Next, `O=C(COC(=O)c1ccc(Cl)nc1)NC1CCCc2ccccc21` (stereo unspecified): 36.1 µg/mL (≈ 105 µM); `N#CCC(=O)N1CCN(Cc2ccc3c(c2)OCO3)CC1`: 1.6 µg/mL (≈ 5.57 µM); `CC1(C2CC(C(F)(F)F)n3nc(C(=O)O)cc3N2)CC1` (stereo unspecified): more than 43.4 µg/mL. Next, `Cn1c(Cl)c(/C=N/OC(=O)C(C)(C)C)c2ccccc21`: 0.7 µg/mL (≈ 2.39 µM); `COc1ccc(C2C(C(C)=O)=C(C)Nc3ncnn32)cc1[N+](=O)[O-]` (stereo unspecified): more than 49.4 µg/mL; `CCOC(=O)c1sc(=S)n(CC)c1NC(=O)c1ccccc1`: 8.8 µg/mL (≈ 26.2 µM). The compound `Cc1ccc(S(=O)(=O)N2CCN(CC(=O)N3CCOCC3)CC2)cc1` returned a solubility (kinetic) of 54.7 µg/mL (≈ 149 µM). Compared with the last compound, the solubility kinetic is about 6.2-fold higher. For `O=[N+]([O-])c1ccccc1/C=C/c1ccc2ccccc2n1` the value was less than 0.3 µg/mL; for `CCOC(=O)c1ccc(CC2SC(N)=NC2=O)cc1` (stereo unspecified), 36.6 µg/mL (≈ 131 µM).

The compound `CN(Cc1nc2ccccc2[nH]1)Cc1nc(CC2CC2)no1` gave a solubility (kinetic) of more than 44.6 µg/mL. As to `COc1ccc(S(=O)(=O)N2CCCC2)cc1OC`, the solubility (kinetic) came to 32.7 µg/mL (≈ 121 µM). For `CCOc1cccc(C=NCCc2ccc(OC)c(OC)c2)c1O` the value was 45.4 µg/mL (≈ 138 µM); for `CCC(C)Nc1nc2c(c(=O)[nH]c(=O)n2C)n1CCOc1ccccc1` (stereo unspecified), 19.8 µg/mL (≈ 55.4 µM); for `Nc1nc(-c2ccc(S(=O)(=O)N3CCCCC3)cc2)cs1`, 6.6 µg/mL (≈ 20.4 µM).

`Cc1ccnc(Nc2nc(-c3ccc(F)cc3)cs2)c1` displayed a solubility (kinetic) of less than 0.2 µg/mL. Next, `Cc1sc2ncnc(Nc3ccc(O)cc3)c2c1C`: 1.7 µg/mL (≈ 6.27 µM).

For the compound `Cc1ccc(C(=O)NCC(=O)OCC(=O)Nc2cc(S(=O)(=O)N3CCOCC3)ccc2Cl)s1`, the kinetic solubility was more than 77.4 µg/mL. Next, `COc1ccc(NC(=O)Cc2cccs2)cc1S(=O)(=O)N1CCCCC1`: 44.4 µg/mL (≈ 113 µM); `CSc1ncnc2sc(C)c(C)c12`: 1.3 µg/mL (≈ 6.18 µM). For `Clc1ccc(Cl)c(-c2nc(-c3ccncc3)no2)c1` the value was less than 0.2 µg/mL; for `O=C(Nc1ccc(Cl)c(Cl)c1)NC1CCS(=O)(=O)C1` (stereo unspecified), 43.9 µg/mL (≈ 136 µM). With `COc1ccc(-c2nc3ccc(C)cc3c(=O)o2)cc1OC`, the solubility (kinetic) was less than 0.6 µg/mL.

Compound `COc1ccc(-c2noc(=O)n2Cc2ccccc2Cl)cc1` displayed a solubility (kinetic) of 17.8 µg/mL (≈ 56.2 µM). `O=C(COC(=O)c1ccc(Cl)nc1)Nc1cc(S(=O)(=O)N2CCOCC2)ccc1Cl` came in with a kinetic solubility of 50.6 µg/mL (≈ 107 µM). Take `COc1ccccc1NC(=O)c1ccccc1NC(=O)c1cccs1`: the kinetic solubility is less than 0.4 µg/mL. For `O=C(Nc1ccc2oc(-c3ccncc3)nc2c1)c1ccco1` the value was 12.7 µg/mL (≈ 41.6 µM); for `Cc1ccc([N+](=O)[O-])cc1NC(=O)C[n+]1ccccc1.[Cl-]`, more than 46.2 µg/mL. Next, `O=C(O)c1ccccc1NC(=O)C1C2C=CC(C2)C1C(=O)O` (stereo unspecified): more than 45.2 µg/mL.

The compound `O=C(O)c1cc([N+](=O)[O-])c(Sc2nc3ccccc3[nH]2)c([N+](=O)[O-])c1` showed a solubility (kinetic) of more than 54 µg/mL. In the case of `CCN1CSC(=S)N(Cc2ccc(OC)cc2)C1`, the solubility (kinetic) turned out to be 38.6 µg/mL (≈ 137 µM). The compound `Fc1ccc(SCCc2cccc[nH+]2)cc1.O=P([O-])(O)O` had a kinetic solubility of 9.7 µg/mL. `N/C(=N\OC(=O)C(c1ccccc1)c1ccccc1)c1ccncc1` came in with a solubility (kinetic) of 47.5 µg/mL (≈ 143 µM). Against the preceding compound, the solubility kinetic is about 4.9-fold higher.
